Measured values: patent publication US20250017848A1, “CARRIER OR AUXILIARY MATERIAL OF OPHTHALMIC PREPARATION, PREPARATION METHOD THEREFOR, AND APPLICATION THEREOF” (CHENGDU RUIMU BIOPHARMACEUTICALS CO., LTD., priority 2021, published 2025)
Values after ≈ are worked out from the molar mass of the structure shown. Values joined by “and” are separate entries in the source; they are usually repeats but may differ in a detail not shown here. Identical values can stand only once. Each block holds one compound with its values, some of them ahead of it.

Columns and labels:
[1] = API concentration in rat vitreous body after eye drops (LC/MS/MS); type: in vivo, Sprague Dawley (SD) rats; details: 0.5 h after eye drops, 20 μL/eye; for concentration at 0.5 h: Sprague Dawley, rat, vitreous body, topical, read-out: API concentration in the vitreous body (vitreum) of rats
Method: Unless otherwise stated, the method for verifying the result of delivering medicaments to the posterior segment of the eye was as follows:
Experimental instrument and equipment: High performance liquid chromatography, model: LC-20AD (Shimadzu, Japan); mass spectrometer: model: API4000 triple quadrupole mass spectrometer (Applied Biosystems, USA); chromatographic column: Fortis Pace C18 […], 2.1×30 mm (Fortis, UK).
Rats: Healthy adult Sprague Dawley (SD) rats were divided into a test group and a control group, with 6 eyes in each group. The test group received eye drops of the ophthalmic preparation prepared in the Example of the present invention, while the control group received the suspension of medicament (2 mg) in 5 mL of physiological saline (vortex shaking prior to use), at a dosage of 20μL/eye. 0.5 h or 1 h after administration, the animals were euthanized, and the vitreous bodies were quickly collected. The vitreous samples were homogenized and stored at-80° C. To 10 μL of vitreous homogenate, was added 90 μL of 95% ethanol, and then the solution was mixed under ultrasonic for 2 min, followed by vortex mixing for 1 min, to obtain the vitreous homogenate; to 50 μL of the homogenate, was added 175 μL of methanol, and then the resultant solution was vortex mixed for 3 min, and centrifuged at 4° C. and 12000 rpm for 10 min. The supernatant was filtered using a 0.45 μm needle filter. The filtrate was subjected to LC/MS/MS (Positive ion mode, MRM SCAN) analysis.

[2] = test system: human cytomegalovirus strains HCMV-AD169; test: In vitro inhibitory activity against human cytomegalovirus (CPE in MRC-5 cells); type: cell-based; details: for CPE of each well: 4 wells
Method: The eye drop delivery systems of ganciclovir prepared in the Examples were tested for its in vitro inhibitory activities against human cytomegalovirus (HCMV).
Human embryo lung fibroblasts (MRC-5) infected with human cytomegalovirus strains HCMV-AD169 were chosen and used in the experiment, and the antiviral activity of ganciclovir was investigated with half effective dose (EC50). Four groups were included in the experiment, that is, the test group of the eye drop delivery systems prepared in the Examples, the test group of ganciclovir technical drug, the negative control group (MRC-5 cells), and the positive control group (MRC-5 cells infected with HCMV-AD169). The samples of both test groups were diluted with the culture media to obtain 6 diluted concentrations: 500 μg/mL, 250 μg/mL, 125 μg/mL, 62.5 μg/mL, 31.25 μg/mL, and 15.63 μg/mL, and 4 wells were set for each diluted concentration. Cytopathic effect (CPE) was used as an indicator: 0 for no cytopathy, 1 for ≤25% cytopathy, 2 for 25%-50% cytopathy, 3 for 50%-75% cytopathy, and 4 for 75%-100% cytopathy. The half effective dose (EC50) was calculated using Reed-Munch method: EC50=10n; n=[(logarithm of the dilution degree corresponding to an efficiency of >50%)+(percentage of >50% efficiency−50%)/(percentage of >50% efficiency−percentage of <50% efficiency)×logarithm of the dilution coefficient.
The experimental procedures were as follows: MRC-5 cells were adjusting to approximate 1.5×10^5/mL, and then added a 96 well plate, 100 μL of culture media for each well. The plate was cultured in a 37° C., 5% CO2 cell incubator, and then the supernatant was discarded after the cells adhered to the wall as a monolayer. Except for the control groups, […] were added to each well of both test groups at a concentration of 100×TC50 (half of the virus infected cells obtained in the pre-experiment) and then incubated for 2 h. The supernatant was discarded. A series of test samples were added at 100 μL/well, and then the plate was further cultivated. The CPE of each well was observed. When the CPE of the positive control group reached more than 90%, the CPE of each well was recorded, and the half effective dose (EC50) was calculated using the Reed Munch method.

[3] = test system: Streptococcus pneumoniae ATCC49619; test: In vitro bacteriostasis test (MIC, broth microdilution); type: cell-based; details: read-out: Minimum inhibitory concentration (MIC)
Method: (§1) The in vitro bacteriostasis test (MIC) was carried out on the moxifloxacin eye drop delivery system prepared in the Example. The moxifloxacin technical drug was used as the control, while the moxifloxacin eye drop delivery system prepared in Example 6 was used as the test sample, to prepare a drug sensitive plate, so that the drug sensitive plate contained 7-8 diluted concentrations of moxifloxacin technical drug (the control) and the test sample, which was obtained by dilution in a ratio of 1:2. 25 bacterial strains incubated for 18 h-24 h were chosen using inoculation loop, and transferred into sterile physiological saline to form a bacterial suspension equivalent to 0.5 MCF; the bacterial suspension was added to the liquid drug sensitive media, in which the ratio of the bacterial suspension to the liquid media was 1:200, and mixed well, then 100 μL of diluted bacterial solution was added to each well; the media was incubated at 35° C.±2° C. for 16-20 h; the growth of bacteria in each well was determined by turbidity, and observed from low concentration to high concentration. The minimum drug concentration that could inhibit bacterial growth was the MIC of the drug.

[4] = test system: Staphylococcus aureus ATCC29213; test: as above; type: cell-based; details: read-out: Minimum inhibitory concentration (MIC)
Method: as §1

[5] = test system: Escherichia coli ATCC25922; test: as above; type: cell-based; details: read-out: Minimum inhibitory concentration (MIC)
Method: as §1

[6] = test system: Enterococcus faecalis ATCC29212; test: as above; type: cell-based; details: read-out: Minimum inhibitory concentration (MIC)
Method: as §1

[7] = test system: Haemophilus influenza ATCC49247; test: as above; type: cell-based; details: read-out: Minimum inhibitory concentration (MIC)
Method: as §1

Streptococcus pneumoniae = test: as above; type: cell-based; details: 3 unnamed strains (one per table line), read-out: Minimum inhibitory concentration (MIC)
Method: as §1

[8] = test system: Pseudomonas aeruginosa ATCC27853; test: as above; type: cell-based; details: read-out: Minimum inhibitory concentration (MIC)
Method: as §1

SMILES: O=C(O)CCCC[C@@H]1CCSS1 (racemic) [lipoic acid]
API concentration in the vitreous body (vitreum) of rats [1]: < 1 ng/g

SMILES: Nc1nc(O)c2ncn(COC(CO)CO)c2n1 [Ganciclovir technical drug, ganciclovir]
Effective rate ([2]; 15.63 μg/mL): 21%
CPE of each well ([2]; 15.63 μg/mL): 4 (4 for 75%-100% cytopathy) and 3 (3 for 50%-75% cytopathy)
Effective rate ([2]; 31.25 μg/mL): 35%
CPE of each well ([2]; 31.25 μg/mL): 3 (3 for 50%-75% cytopathy)
Effective rate ([2]; 62.5 μg/mL): 64%
CPE of each well ([2]; 62.5 μg/mL): 2 (2 for 25%-50% cytopathy) and 3 (3 for 50%-75% cytopathy)
Effective rate ([2]; 125 μg/mL): 77%
CPE of each well ([2]; 125 μg/mL): 2 (2 for 25%-50% cytopathy) and 1 (1 for ≤25% cytopathy)
Effective rate ([2]; 250 μg/mL): 91%
Effective rate ([2]; 500 μg/mL): 97%

SMILES: COc1c(N2C[C@@H]3CCCN[C@@H]3C2)c(F)cc2c(=O)c(C(=O)O)cn(C3CC3)c12 [Moxifloxacin, moxifloxacin]
MIC [3]: 0.12 mg/L (≈ 0.299 µM)
MIC [4]: 0.12 mg/L (≈ 0.299 µM)
MIC [5]: 0.06 mg/L (≈ 0.149 µM)
MIC [6]: 0.5 mg/L (≈ 1.25 µM)
MIC [7]: ≤ 0.032 mg/L
MIC (Streptococcus pneumoniae): 0.25 mg/L (≈ 0.623 µM)
MIC [8]: 4 mg/L (≈ 9.96 µM)

Now from value to compound:

concentration at 0.5 h [1]: < 1 ng/g
SMILES: C[C@@H]1C[C@H]2[C@@H]3CCC4=CC(=O)C=C[C@]4(C)[C@@]3(F)[C@@H](O)C[C@]2(C)[C@@]1(O)C(=O)CO [dexamethasone]

concentration at 0.5 h [1]: < 1 ng/g
SMILES: C[C@H]1c2cccc(O)c2C(=O)C2=C(O)[C@]3(O)C(=O)C(C(N)=O)=C(O)[C@@H](N(C)C)[C@@H]3[C@@H](O)[C@@H]21 [doxycycline]
